Data from US11576382B2, “Naphthalene isoxazoline compounds for controlling invertebrate pests” (FMC Corporation, priority 2018, dated 2023).

Key:
Format in all cases: in vivo
[1] = test system: green peach aphid (Myzus persicae (Sulzer)); assay: Test E: control of green peach aphid through contact and/or systemic means; conditions: in Raphanus sativus, 144 h
Experimental: (§1) Formulation and Spray Methodology for Tests A-H
(§2) Test compounds were formulated using a solution containing 10% acetone, 90% water and 300 ppm Activator 90® non-ionic surfactant (Loveland Products, Loveland, Colo., USA). The formulated compounds were applied in 1 mL of liquid through an atomizer nozzle positioned 1.27 cm (0.5 inches) above the top of each test unit. Test compounds were sprayed at the rates indicated, and each test was replicated three times.
For evaluating control of green peach aphid (Myzus persicae (Sulzer)) through contact and/or systemic means, the test unit consisted of a small open container with a 12-15-day-old radish plant inside. This was pre-infested by placing on a leaf of the test plant 30-40 aphids on a piece of leaf excised from a culture plant (cut-leaf method). The aphids moved onto the test plant as the leaf piece desiccated. After pre-infestation, the soil of the test unit was covered with a layer of sand.
Test compounds were formulated and sprayed at 250, 50 and 10 ppm. After spraying of the formulated test compound, each test unit was allowed to dry for 1 hour and then a black, screened cap was placed on top. The test units were held for 6 days in a growth chamber at 19-21° C. and 50-70% relative humidity. Each test unit was then visually assessed for insect mortality.

[2] = test system: cotton melon aphid (Aphis gossypii (Glover)); assay: Test F: control of cotton melon aphid through contact and/or systemic means; conditions: 144 h
Experimental: as §1, §2
For evaluating control of cotton melon aphid (Aphis gossypii (Glover)) through contact and/or systemic means, the test unit consisted of a small open container with a 5-day-old okra plant inside. This was pre-infested with 30-40 insects on a piece of leaf according to the cut-leaf method, and the soil of the test unit was covered with a layer of sand.
Test compounds were formulated and sprayed at 250, 50 and 10 ppm. After spraying, the test units were maintained in a growth chamber for 6 days at 19° C. and 70% relative humidity. Each test unit was then visually assessed for insect mortality.

[3] = test system: potato leafhopper (Empoasca fabae (Harris)); assay: Test D: control of potato leafhopper through contact and/or systemic means; conditions: 144 h
Experimental: as §1, §2
For evaluating control of potato leafhopper (Empoasca fabae (Harris)) through contact and/or systemic means, the test unit consisted of a small open container with a 5-6-day-old Soleil bean plant (primary leaves emerged) inside. White sand was added to the top of the soil, and one of the primary leaves was excised prior to application of the test compound.
Test compounds were formulated and sprayed at 250, 50, 10 and 2 ppm. After spraying of the formulated test compound, the test units were allowed to dry for 1 hour before they were post-infested with 5 potato leafhoppers (18-to-21-day-old adults). A black, screened cap was placed on the top of the test unit, and the test units were held for 6 days in a growth chamber at 20° C. and 70% relative humidity. Each test unit was then visually assessed for insect mortality.

[4] = test system: sweetpotato whitefly (Bemisia tabaci (Gennadius)); assay: Test G: control of sweetpotato whitefly through contact and/or systemic means; conditions: in Gossypium hirsutum, 312 h
Experimental: as §1, §2
For evaluating control of the sweetpotato whitefly (Bemisia tabaci (Gennadius)) through contact and/or systemic means, the test unit consisted of a small open container with a 12-14-day-old cotton plant inside. Prior to the spray application, both cotyledons were removed from the plant, leaving one true leaf for the assay. Adult whiteflies were allowed to lay eggs on the plant and then were removed from the test unit. Cotton plants infested with at least 15 eggs were submitted to the test for spraying.
Test compounds were formulated and sprayed at 250, 50, and 10 ppm. After spraying, the test units were allowed to dry for 1 hour. The cylinders were then removed, and the units were taken to a growth chamber and held for 13 days at 28° C. and 50-70% relative humidity. Each test unit was then visually assessed for insect mortality.

Structure (SMILES) | mortality at 50 ppm [1] | mortality at 250 ppm [1] | mortality at 50 ppm [2] | mortality at 250 ppm [2] | mortality at 250 ppm [3] | mortality at 50 ppm [4] | mortality at 2 ppm [3] | mortality at 10 ppm [3] | mortality at 50 ppm [3] | mortality at 2 ppm [4] | mortality at 10 ppm [4] | mortality at 10 ppm [2]
COC(=O)CNC(=O)c1ccc(C2=NOC(c3cc(Cl)c(F)c(Cl)c3)(C(F)(F)F)C2)c2ccccc12 (stereo not drawn) [Compound 35, N-[[4-[5-(3,5-dichloro-4-fluorophenyl)-4,5-dihydro-5-(trifluoromethyl)-3-isoxazolyl]-1-naphthalenyl]carbonyl]glycine methyl ester] | ≥ 80% | ≥ 80% | ≥ 80% | ≥ 80% | ≥ 80% |  |  |  |  |  |  | 
O=C(NCc1ccccn1)c1ccc(C2=NOC(c3cc(Cl)c(F)c(Cl)c3)(C(F)(F)F)C2)c2ccccc12 (stereo not drawn) [Compound 15, 4-[5-(3,5-dichloro-4-fluorophenyl)-4,5-dihydro-5-(trifluoromethyl)-3-isoxazolyl]-N-(2-pyridinylmethyl)-1-naphthalenecarboxamide] |  |  |  |  |  | ≥ 70% | ≥ 80% | ≥ 80% | ≥ 80% |  |  | 
CON=CNC(=O)c1ccc(C2=NOC(c3cc(Cl)c(F)c(Cl)c3)(C(F)(F)F)C2)c2ccccc12 (stereo not drawn) [Compound 33, 4-[5-(3,5-dichloro-4-fluorophenyl)-4,5-dihydro-5-(trifluoromethyl)-3-isoxazolyl]-N-[(methoxyimino)methyl]-1-naphthalenecarboxamide] | ≥ 80% |  | ≥ 80% |  |  | ≥ 70% | ≥ 80% | ≥ 80% | ≥ 80% | ≥ 70% | ≥ 70% | ≥ 80%
C[C@@H](NC(=O)c1ccc(C2=NOC(c3cc(Cl)c(F)c(Cl)c3)(C(F)(F)F)C2)c2ccccc12)C(N)=O (stereo partly drawn) [Compound 1, N-[(1R)-2-amino-1-methyl-2-oxoethyl]-4-[5-(3,5-dichloro-4-fluorophenyl)-4,5-dihydro-5-(trifluoromethyl)-3-isoxazolyl]-1-naphthalenecarboxamide] |  |  |  | ≥ 80% | ≥ 80% |  |  |  | ≥ 80% |  |  | 
